Literature values in US20240264159A1 (priority 2021, published 2024).

System: SARS-CoV-2
Settings: Bewley et al., 2021; cited from earlier work

heparin
inhibition of SARS-CoV-2 entry into cells: inhibit SARS-CoV-2 entry into cells
